The source of these data is PMC5791972 (PLoS ONE, 2018).

The test system of one data set is NMRI mice. Nature of the data set: Locomotor activity. It is filed as in vivo, mouse. As to conditions: 0.1, 3 or 10 mg/kg PO. The protocol: NMRI mice were habituated to their room for at least 2 weeks after the delivery and kept under standard conditions in groups of 4–5 animals per cage. Food and water were available ad libitum.
Spontaneous motility and rearing were measured by an automated system (Coulbourn Instruments, USA). Animals were introduced into transparent square cages (40 cm length) that are equipped with 2 light barrier systems in order to monitor the movements as well as rearing behavior automatically. The movements of the animals were recorded for 30 minutes. At the end of the experiment, the animals were sacrificed via isofluorane inhalation and subsequent decapitation.

For the next data set, the system named is range of ion channels. As to the kind of experiment: Ion channel selectivity panel, whole-cell manual patch clamp. It is filed as cell-based. As to conditions: at 1.9 μM. On the technique in general: The patch-clamp technique gives a direct electrical read-out from membranes.
The subject of another data set is C57BL/6 (CSD) mice. Nature of the data set: Chronic social defeat and fear learning and memory. It is filed as in vivo, mouse. As to conditions: 1 mg/kg oral.
A further data set addresses T1, caspase-3 (h) (Homo sapiens, UniProt P42574).
T1 construct: Cerep (contract assay); host or cells: E. coli
T1 sequence (P42574 29-175 limits assumed): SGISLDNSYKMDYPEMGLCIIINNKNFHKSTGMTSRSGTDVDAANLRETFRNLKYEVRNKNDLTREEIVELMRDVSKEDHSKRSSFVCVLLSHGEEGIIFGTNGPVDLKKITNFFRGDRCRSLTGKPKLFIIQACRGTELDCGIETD
T1 sequence (P42574 176-277 limits assumed): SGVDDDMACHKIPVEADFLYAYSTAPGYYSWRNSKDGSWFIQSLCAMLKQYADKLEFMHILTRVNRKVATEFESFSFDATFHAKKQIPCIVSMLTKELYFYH
Nature of the data set: biochemical. As to conditions: 1.0E-06 M.

Another data set concerns the target PDE4D2 (h) (Homo sapiens, UniProt Q08499). Nature of the data set: biochemical. The conditions noted are these: 1.0E-06 M.
For the next data set, the system named is α1 (non-selective). It is filed as binding, rat. The conditions noted are these: 1.0E-06 M.
For a further data set, the target named is T2, α2A (h) (Homo sapiens, UniProt P08913).
T2 construct: host or cells: CHO cells
T2 sequence (P08913 1-465): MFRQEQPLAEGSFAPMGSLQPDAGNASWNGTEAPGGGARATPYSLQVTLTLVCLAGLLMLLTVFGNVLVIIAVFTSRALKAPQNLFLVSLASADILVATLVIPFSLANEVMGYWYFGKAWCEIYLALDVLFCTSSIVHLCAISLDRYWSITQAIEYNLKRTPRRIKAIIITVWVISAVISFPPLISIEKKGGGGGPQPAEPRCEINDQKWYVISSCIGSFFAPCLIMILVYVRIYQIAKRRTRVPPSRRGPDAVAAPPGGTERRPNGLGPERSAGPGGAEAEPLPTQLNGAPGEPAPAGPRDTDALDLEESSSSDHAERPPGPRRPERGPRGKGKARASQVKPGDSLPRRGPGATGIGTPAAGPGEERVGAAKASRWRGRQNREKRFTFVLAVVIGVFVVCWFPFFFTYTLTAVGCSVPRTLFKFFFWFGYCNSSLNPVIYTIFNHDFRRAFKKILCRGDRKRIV
It is filed as binding. The conditions noted are these: 1.0E-06 M.

Data set [1] addresses T3, FLT-1 kinase (h) (VEGFR1) (Homo sapiens, UniProt P17948).
T3 construct: host or cells: Sf9 cells
Nature of the data set: enzyme assay. It is filed as biochemical. The conditions noted are these: 1.0E-06 M.

The target in the next data set is T4, V2 (h) (Homo sapiens, UniProt P30518).
T4 construct: host or cells: CHO cells
It is filed as binding. As to conditions: 1.0E-06 M.

In another data set the target is T5, BLT1 (LTB4) (h) (Homo sapiens, UniProt Q15722).
T5 construct: host or cells: CHO cells
It is filed as binding. The conditions noted are these: 1.0E-06 M.

In the next data set the target is hERG (Homo sapiens, UniProt Q12809). As to the kind of experiment: Ion channel selectivity patch clamp.
The test system of another data set is BZD (central). It is filed as binding, rat. As to conditions: 1.0E-06 M.
The next data set deals with Lyn A kinase (h) (Homo sapiens, UniProt P07948). As to the kind of experiment: biochemical. As to conditions: 1.0E-06 M.
In another data set the target is T6, mTRPC5 (Mus musculus, UniProt Q9QX29).
T6 construct: The cDNAs for various full-length ion channels were subcloned into pcDNA5/TO; expressed in transfected cells
Nature of the data set: Whole-cell manual patch clamp. It is filed as cell-based. The conditions noted are these: La3+ (80 μM).

Another data set has as its target T7, V1a (h) (Homo sapiens, UniProt P37288).
T7 construct: host or cells: CHO cells
It is filed as binding. As to conditions: 1.0E-06 M.

The target of another data set is T8, AT1 (h) (Homo sapiens, UniProt P30556).
T8 construct: host or cells: HEK-293 cells
T8 sequence (P30556 1-359): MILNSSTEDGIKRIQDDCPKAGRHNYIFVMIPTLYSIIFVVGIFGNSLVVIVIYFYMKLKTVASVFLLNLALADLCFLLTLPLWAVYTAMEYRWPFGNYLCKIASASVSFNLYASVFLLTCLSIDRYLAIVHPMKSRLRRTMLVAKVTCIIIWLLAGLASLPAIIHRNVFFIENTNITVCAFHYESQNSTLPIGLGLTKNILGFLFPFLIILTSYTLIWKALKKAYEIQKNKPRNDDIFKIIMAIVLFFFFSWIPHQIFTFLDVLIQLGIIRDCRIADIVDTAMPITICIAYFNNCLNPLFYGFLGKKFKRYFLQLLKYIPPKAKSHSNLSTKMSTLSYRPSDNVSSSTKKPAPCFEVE
It is filed as binding. The conditions noted are these: 1.0E-06 M.

Data set [2] has as its system Ca2+ channel (L, verapamil site) (phenylalkylamine). It is filed as binding, rat. As to conditions: 1.0E-06 M.
A further data set concerns the target T9, MT1 (ML1A) (h) (Homo sapiens, UniProt P48039).
T9 construct: host or cells: CHO cells
It is filed as binding. The conditions noted are these: 1.0E-06 M.

The structures appear in SMILES notation. Entries after “also recorded” stand apart in the source; their conditions may differ. Where two headings read alike, the source gives them in different places.

T9 sequence (P48039 whole entry): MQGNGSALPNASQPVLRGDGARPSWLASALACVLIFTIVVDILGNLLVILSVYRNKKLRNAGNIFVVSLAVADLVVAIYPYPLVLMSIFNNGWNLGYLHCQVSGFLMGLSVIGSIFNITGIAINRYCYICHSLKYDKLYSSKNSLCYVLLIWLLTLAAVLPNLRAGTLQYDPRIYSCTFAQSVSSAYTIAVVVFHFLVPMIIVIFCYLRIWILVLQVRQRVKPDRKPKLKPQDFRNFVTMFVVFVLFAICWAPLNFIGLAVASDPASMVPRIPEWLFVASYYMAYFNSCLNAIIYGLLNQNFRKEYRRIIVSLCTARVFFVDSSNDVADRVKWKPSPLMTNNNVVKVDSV
Chain of Lyn A kinase (h) (P07948 whole entry): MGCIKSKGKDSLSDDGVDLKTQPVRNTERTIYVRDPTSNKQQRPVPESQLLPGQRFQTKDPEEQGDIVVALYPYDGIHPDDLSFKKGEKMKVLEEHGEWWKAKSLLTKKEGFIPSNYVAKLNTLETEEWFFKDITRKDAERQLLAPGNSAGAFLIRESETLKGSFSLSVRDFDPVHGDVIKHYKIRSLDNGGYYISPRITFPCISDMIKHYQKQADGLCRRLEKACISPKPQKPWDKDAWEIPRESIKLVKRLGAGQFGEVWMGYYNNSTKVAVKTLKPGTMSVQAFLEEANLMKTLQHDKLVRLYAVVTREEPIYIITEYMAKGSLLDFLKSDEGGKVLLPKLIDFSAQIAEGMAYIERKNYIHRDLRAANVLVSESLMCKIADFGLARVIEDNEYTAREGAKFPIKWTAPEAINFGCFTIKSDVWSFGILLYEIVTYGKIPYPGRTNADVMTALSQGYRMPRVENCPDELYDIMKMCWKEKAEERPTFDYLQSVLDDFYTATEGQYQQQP
Chain of PDE4D2 (h) (Q08499 303-809 limits assumed): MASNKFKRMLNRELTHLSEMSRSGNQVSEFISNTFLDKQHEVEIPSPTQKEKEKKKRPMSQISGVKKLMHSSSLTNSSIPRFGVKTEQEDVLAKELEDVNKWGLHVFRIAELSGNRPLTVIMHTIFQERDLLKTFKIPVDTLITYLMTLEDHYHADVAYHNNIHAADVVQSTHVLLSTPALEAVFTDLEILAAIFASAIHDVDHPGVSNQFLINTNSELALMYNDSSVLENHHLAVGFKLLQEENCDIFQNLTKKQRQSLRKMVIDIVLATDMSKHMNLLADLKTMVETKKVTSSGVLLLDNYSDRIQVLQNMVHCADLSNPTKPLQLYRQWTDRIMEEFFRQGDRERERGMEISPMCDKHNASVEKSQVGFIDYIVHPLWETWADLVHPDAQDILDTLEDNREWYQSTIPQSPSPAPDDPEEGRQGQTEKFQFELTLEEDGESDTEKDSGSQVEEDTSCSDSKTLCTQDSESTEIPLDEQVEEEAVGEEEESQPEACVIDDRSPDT
T3 sequence (P17948 27-1338): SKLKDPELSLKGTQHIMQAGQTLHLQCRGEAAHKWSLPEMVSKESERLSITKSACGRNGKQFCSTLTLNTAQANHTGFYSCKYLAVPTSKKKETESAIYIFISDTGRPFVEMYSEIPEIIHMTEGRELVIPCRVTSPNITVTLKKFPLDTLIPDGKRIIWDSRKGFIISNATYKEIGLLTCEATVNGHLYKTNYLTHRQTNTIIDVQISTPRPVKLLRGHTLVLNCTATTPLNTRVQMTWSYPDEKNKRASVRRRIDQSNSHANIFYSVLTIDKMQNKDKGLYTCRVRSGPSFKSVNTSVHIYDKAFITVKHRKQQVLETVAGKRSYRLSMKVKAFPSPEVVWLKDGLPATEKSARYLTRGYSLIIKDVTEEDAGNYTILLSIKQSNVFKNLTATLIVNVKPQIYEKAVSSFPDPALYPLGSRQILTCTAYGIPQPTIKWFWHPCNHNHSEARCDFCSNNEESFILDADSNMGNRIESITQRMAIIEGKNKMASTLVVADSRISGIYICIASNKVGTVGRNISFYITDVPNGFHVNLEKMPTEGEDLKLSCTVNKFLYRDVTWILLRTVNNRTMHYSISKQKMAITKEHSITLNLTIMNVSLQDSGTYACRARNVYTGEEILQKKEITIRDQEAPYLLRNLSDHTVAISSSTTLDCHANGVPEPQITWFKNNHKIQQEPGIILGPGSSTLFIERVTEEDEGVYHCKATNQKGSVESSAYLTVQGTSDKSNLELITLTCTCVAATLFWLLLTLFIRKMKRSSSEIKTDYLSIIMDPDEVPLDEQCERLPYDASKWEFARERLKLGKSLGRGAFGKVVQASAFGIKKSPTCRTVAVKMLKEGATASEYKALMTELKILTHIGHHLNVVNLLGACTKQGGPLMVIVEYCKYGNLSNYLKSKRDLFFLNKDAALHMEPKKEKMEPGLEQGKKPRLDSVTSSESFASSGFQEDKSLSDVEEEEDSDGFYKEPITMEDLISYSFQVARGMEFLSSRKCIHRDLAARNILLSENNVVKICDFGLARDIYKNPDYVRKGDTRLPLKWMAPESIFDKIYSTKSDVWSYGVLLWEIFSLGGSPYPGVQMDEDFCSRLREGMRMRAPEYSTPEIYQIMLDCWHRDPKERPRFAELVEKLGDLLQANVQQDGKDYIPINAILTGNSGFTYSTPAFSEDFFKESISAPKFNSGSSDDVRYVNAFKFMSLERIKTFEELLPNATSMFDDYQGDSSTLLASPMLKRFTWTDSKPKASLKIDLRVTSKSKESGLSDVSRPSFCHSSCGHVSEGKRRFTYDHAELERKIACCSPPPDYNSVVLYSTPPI
T7 sequence (P37288 whole entry): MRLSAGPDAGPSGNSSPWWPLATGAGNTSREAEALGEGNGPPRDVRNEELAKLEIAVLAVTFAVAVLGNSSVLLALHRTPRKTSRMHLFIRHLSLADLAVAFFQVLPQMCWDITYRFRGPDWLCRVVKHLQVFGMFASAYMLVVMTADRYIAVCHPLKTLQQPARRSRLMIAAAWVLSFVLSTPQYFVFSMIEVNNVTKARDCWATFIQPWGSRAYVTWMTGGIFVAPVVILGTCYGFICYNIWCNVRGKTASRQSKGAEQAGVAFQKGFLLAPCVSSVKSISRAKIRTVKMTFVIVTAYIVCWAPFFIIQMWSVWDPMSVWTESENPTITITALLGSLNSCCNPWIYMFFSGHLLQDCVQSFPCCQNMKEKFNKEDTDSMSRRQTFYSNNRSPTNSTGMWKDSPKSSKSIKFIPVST
T4 sequence (P30518 whole entry): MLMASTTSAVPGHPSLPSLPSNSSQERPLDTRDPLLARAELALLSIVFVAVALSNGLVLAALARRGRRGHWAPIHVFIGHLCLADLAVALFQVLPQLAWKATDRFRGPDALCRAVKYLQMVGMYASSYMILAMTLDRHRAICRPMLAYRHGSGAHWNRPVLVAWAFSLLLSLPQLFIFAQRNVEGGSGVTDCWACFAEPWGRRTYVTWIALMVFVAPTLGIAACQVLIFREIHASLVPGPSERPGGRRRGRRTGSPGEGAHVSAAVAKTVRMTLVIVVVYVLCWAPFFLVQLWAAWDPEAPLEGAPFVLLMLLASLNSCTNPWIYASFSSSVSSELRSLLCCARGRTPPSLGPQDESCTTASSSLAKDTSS
T5 sequence (Q15722 whole entry): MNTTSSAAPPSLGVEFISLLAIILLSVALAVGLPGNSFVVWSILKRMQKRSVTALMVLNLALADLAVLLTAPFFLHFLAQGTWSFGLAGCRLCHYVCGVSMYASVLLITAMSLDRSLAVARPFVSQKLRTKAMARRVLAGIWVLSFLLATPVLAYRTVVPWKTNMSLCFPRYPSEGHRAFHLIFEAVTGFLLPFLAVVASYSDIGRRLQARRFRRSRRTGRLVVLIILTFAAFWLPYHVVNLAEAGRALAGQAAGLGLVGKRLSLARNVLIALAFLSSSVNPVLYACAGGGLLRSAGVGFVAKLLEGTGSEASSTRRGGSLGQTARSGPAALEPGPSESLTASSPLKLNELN
Chain of hERG (Q12809 whole entry): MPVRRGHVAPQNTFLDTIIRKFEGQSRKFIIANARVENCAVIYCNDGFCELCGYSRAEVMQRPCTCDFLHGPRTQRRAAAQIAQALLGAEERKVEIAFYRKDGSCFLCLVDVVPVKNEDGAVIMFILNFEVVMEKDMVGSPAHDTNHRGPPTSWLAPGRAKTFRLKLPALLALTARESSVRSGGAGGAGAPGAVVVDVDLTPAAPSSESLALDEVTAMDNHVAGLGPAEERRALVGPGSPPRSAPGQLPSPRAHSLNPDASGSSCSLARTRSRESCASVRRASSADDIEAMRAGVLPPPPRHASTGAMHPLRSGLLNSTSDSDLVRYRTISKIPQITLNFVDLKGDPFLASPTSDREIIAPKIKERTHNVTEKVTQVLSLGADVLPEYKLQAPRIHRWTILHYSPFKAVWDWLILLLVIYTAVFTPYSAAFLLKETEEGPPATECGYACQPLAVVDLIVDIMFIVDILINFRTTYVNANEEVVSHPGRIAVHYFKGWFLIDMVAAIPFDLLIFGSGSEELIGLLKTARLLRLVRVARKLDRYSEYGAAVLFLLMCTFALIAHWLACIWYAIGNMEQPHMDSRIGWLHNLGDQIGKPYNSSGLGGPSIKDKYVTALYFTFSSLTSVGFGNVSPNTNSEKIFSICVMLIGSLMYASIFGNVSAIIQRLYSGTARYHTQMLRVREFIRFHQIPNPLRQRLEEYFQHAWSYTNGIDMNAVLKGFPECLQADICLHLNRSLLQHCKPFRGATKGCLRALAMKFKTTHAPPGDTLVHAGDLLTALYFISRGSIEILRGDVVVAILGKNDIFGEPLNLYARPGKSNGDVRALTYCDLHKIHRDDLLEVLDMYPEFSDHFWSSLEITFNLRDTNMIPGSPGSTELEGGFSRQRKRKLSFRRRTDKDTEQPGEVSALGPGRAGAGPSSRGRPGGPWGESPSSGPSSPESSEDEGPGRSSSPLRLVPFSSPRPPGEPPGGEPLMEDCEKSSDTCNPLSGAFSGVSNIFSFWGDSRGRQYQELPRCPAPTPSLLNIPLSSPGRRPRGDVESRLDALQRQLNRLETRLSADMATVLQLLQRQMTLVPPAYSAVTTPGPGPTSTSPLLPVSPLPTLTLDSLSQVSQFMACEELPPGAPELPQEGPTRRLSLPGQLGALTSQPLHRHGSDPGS

As for `Cn1c(=O)n(CCCO)c(=O)c2c1nc(Oc1cccc(Cl)c1)n2Cc1ccc(Cl)cc1` [HC-070], in the data set on NMRI mice, the locomotor activity result is listed as “not impacted”. In addition, in the data set on range of ion channels, the “inhibition in most cases” value was at most 50%. In the data set with C57BL/6 (CSD) mice, the “CS fear memory in CSD mice” value is recorded as “tended to reduce”; the “context fear memory in CSD mice” value is listed as “significantly reduced”; the “freezing in inter-trial intervals between CS presentations, CSD mice” value is “ameliorated to the level of control mice; also recorded: reduced fear memory in CSD mice”.
The term inhibition denotes the change of the read-out against control, counted positive when it falls. Broadly, the IC50 is the concentration needed to halve the response being measured. In the case of `Cn1c(=O)n(CCCO)c(=O)c2c1nc(Oc1cccc(OC(F)(F)F)c1)n2Cc1ccc(Cl)cc1` [HC-608], the inhibition at 1 µM was 3.7% at caspase-3 (h) (read-out: % Inhibition 1st); 2.3% at caspase-3 (h) (read-out: % Inhibition 2nd); 3% on caspase-3 (h) (read-out: % Inhibition Mean); 1.3% at PDE4D2 (h) (read-out: % Inhibition 1st); -2% on PDE4D2 (h) (read-out: % Inhibition 2nd); -0.3% on PDE4D2 (h) (read-out: % Inhibition Mean). For the same molecule, the inhibition at 1 µM is -14.9% on α2A (h) (read-out: % Inhibition 1st); -3.7% at α2A (h) (read-out: % Inhibition 2nd); -9.3% at α2A (h) (read-out: % Inhibition Mean); 9.3% in data set [1] (read-out: % Inhibition 1st); 7.3% in [1] (read-out: % Inhibition 2nd); 8.3% in data set [1] (read-out: % Inhibition Mean). Besides, the inhibition at 1 µM at V2 (h) (read-out: % Inhibition 1st) was 8.6%; at V2 (h) (read-out: % Inhibition 2nd) it was 5.7%; at V2 (h) (read-out: % Inhibition Mean), 7.1%; at BLT1 (LTB4) (h) (read-out: % Inhibition 1st), -2.9%; at BLT1 (LTB4) (h) (read-out: % Inhibition 2nd) it was 13.4%; on BLT1 (LTB4) (h) (read-out: % Inhibition Mean) it was 5.3%. In addition, the inhibition at 1 µM at Lyn A kinase (h) (read-out: % Inhibition 1st) is 13.7%; on Lyn A kinase (h) (read-out: % Inhibition 2nd) it was 5.5%; at Lyn A kinase (h) (read-out: % Inhibition Mean) it was 9.6%; on V1a (h) (read-out: % Inhibition 1st), -9.9%; on V1a (h) (read-out: % Inhibition 2nd) it was 12.5%; on V1a (h) (read-out: % Inhibition Mean), 1.3%. The inhibition at 1 µM was 0.5% on AT1 (h) (read-out: % Inhibition 1st); -6% on AT1 (h) (read-out: % Inhibition 2nd); -2.7% at AT1 (h) (read-out: % Inhibition Mean); 2.2% on MT1 (ML1A) (h) (read-out: % Inhibition 1st); -0.9% at MT1 (ML1A) (h) (read-out: % Inhibition 2nd); 0.7% on MT1 (ML1A) (h) (read-out: % Inhibition Mean). Also, the “% Inhibition 1st” value was -2.8% with α1 (non-selective), -3% in the data set with BZD (central) and 2.3% in data set [2]. The “% Inhibition 2nd” value is listed as 1.1% in the data set on α1 (non-selective), -31.5% with BZD (central) and 14.5% in data set [2]. Moreover, the “% Inhibition Mean” value with α1 (non-selective) is reported as -0.8%; with BZD (central), -17.3%; in data set [2] it was 8.4%. Besides, the IC50 is 1150 ± 130 nM on hERG and around 0.62 nM at mTRPC5.
